Tested on: 276233-004-R-J1-PDC complex spheroid viability
Test: Anticancer human tumor 276233-004-R-J1-PDC patient-derived colon adenocarcinoma cell line growth inhibition [GQUAD]
Settings: for IC50: curve of first compound; for viability, T/C: stronger effect = lower value
In short: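 Viability of tumor cells grown as complex spheroids with endothelial and stromal cells, exposed to drug combinations. Top concentration at or near clinical Cmax (else 10 microM), diluted in half-log increments.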

[1] = second compound 0.0316 µM, first compound 0.0316 µM
[2] = second compound 0.0316 µM, first compound 0.316 µM
[3] = second compound 0.1 µM, first compound 0.0316 µM
[4] = second compound 0.1 µM, first compound 0.316 µM
[5] = second compound 0.316 µM, first compound 0.0316 µM
[6] = second compound 0.316 µM, first compound 0.316 µM
[7] = second compound 1 µM, first compound 0.0316 µM
[8] = second compound 1 µM, first compound 0.316 µM
[9] = second compound 3.16 µM, first compound 0.0316 µM
[10] = second compound 3.16 µM, first compound 0.316 µM
[11] = second compound 10 µM, first compound 0.0316 µM
[12] = second compound 10 µM, first compound 0.316 µM
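Further: spheroids exposed to drugs for seven days.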
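Wherever viability, T/C is given: 100% = DMSO vehicle control viability.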

COc1ncnc(C2CC2)c1-c1ncc2cnn(Cc3ccc(-c4nc(C(F)(F)F)cn4C(C)C)cc3)c2n1 + Cc1cnc(CNC(=O)c2c(=O)c3ccc(N4CCCN(C)CC4)nc3n3c2sc2ccccc23)cn1
IC50 (second compound 0.0316 µM): > 10 µM | IC50 (second compound 0.1 µM): > 10 µM | IC50 (second compound 0.316 µM): > 10 µM | IC50 (second compound 1 µM): > 10 µM | IC50 (second compound 3.16 µM): > 10 µM | IC50 (second compound 10 µM): > 10 µM | viability, T/C [1]: 81.9% | viability, T/C (second compound 0.0316 µM, first compound 0.1 µM): 77.1% | viability, T/C [2]: 66.1% | viability, T/C (second compound 0.0316 µM, first compound 1 µM): 79.7% | viability, T/C (second compound 0.0316 µM, first compound 3.16 µM): 86.2% | viability, T/C (second compound 0.0316 µM, first compound 10 µM): 89% | viability, T/C [3]: 76.2% | viability, T/C (second compound 0.1 µM, first compound 0.1 µM): 95.5% | viability, T/C [4]: 83% | viability, T/C (second compound 0.1 µM, first compound 1 µM): 84.2% | viability, T/C (second compound 0.1 µM, first compound 3.16 µM): 76.9% | viability, T/C (second compound 0.1 µM, first compound 10 µM): 84.5% | viability, T/C [5]: 87.3% | viability, T/C (second compound 0.316 µM, first compound 0.1 µM): 91.2% | viability, T/C [6]: 83.4% | viability, T/C (second compound 0.316 µM, first compound 1 µM): 87.9% | viability, T/C (second compound 0.316 µM, first compound 3.16 µM): 78.4% | viability, T/C (second compound 0.316 µM, first compound 10 µM): 86.4% | viability, T/C [7]: 84.6% | viability, T/C (second compound 1 µM, first compound 0.1 µM): 81.4% | viability, T/C [8]: 81.5% | viability, T/C (second compound 1 µM, first compound 1 µM): 74.5% | viability, T/C (second compound 1 µM, first compound 3.16 µM): 74.8% | viability, T/C (second compound 1 µM, first compound 10 µM): 89.6% | viability, T/C [9]: 76.1% | viability, T/C (second compound 3.16 µM, first compound 0.1 µM): 65.1% | viability, T/C [10]: 80.5% | viability, T/C (second compound 3.16 µM, first compound 1 µM): 62.4% | viability, T/C (second compound 3.16 µM, first compound 3.16 µM): 64.5% | viability, T/C (second compound 3.16 µM, first compound 10 µM): 75.5% | viability, T/C [11]: 67.9% | viability, T/C (second compound 10 µM, first compound 0.1 µM): 60.9% | viability, T/C [12]: 64.3% | viability, T/C (second compound 10 µM, first compound 1 µM): 62.9% | viability, T/C (second compound 10 µM, first compound 3.16 µM): 69.6% | viability, T/C (second compound 10 µM, first compound 10 µM): 65.2%

CC[C@@]1(O)C(=O)OCc2c1cc1n(c2=O)Cc2cc3c(CN(C)C)c(O)ccc3nc2-1 + Cc1cnc(CNC(=O)c2c(=O)c3ccc(N4CCCN(C)CC4)nc3n3c2sc2ccccc23)cn1
IC50 (second compound 0.0316 µM): > 0.316 µM | IC50 (second compound 0.1 µM): > 0.316 µM | IC50 (second compound 0.316 µM): > 0.316 µM | IC50 (second compound 1 µM): > 0.316 µM | IC50 (second compound 3.16 µM): > 0.316 µM | IC50 (second compound 10 µM): > 0.316 µM | viability, T/C (second compound 0.0316 µM, first compound 0.000999 µM): 88.1% | viability, T/C (second compound 0.0316 µM, first compound 0.00316 µM): 94.5% | viability, T/C (second compound 0.0316 µM, first compound 0.00999 µM): 87.9% | viability, T/C [1]: 80% | viability, T/C (second compound 0.0316 µM, first compound 0.0999 µM): 98.7% | viability, T/C [2]: 82.5% | viability, T/C (second compound 0.1 µM, first compound 0.000999 µM): 93.3% | viability, T/C (second compound 0.1 µM, first compound 0.00316 µM): 101% | viability, T/C (second compound 0.1 µM, first compound 0.00999 µM): 107% | viability, T/C [3]: 83.7% | viability, T/C (second compound 0.1 µM, first compound 0.0999 µM): 87% | viability, T/C [4]: 76% | viability, T/C (second compound 0.316 µM, first compound 0.000999 µM): 83.9% | viability, T/C (second compound 0.316 µM, first compound 0.00316 µM): 90.8% | viability, T/C (second compound 0.316 µM, first compound 0.00999 µM): 106% | viability, T/C [5]: 84.4% | viability, T/C (second compound 0.316 µM, first compound 0.0999 µM): 87.7% | viability, T/C [6]: 92.7% | viability, T/C (second compound 1 µM, first compound 0.000999 µM): 81% | viability, T/C (second compound 1 µM, first compound 0.00316 µM): 93.9% | viability, T/C (second compound 1 µM, first compound 0.00999 µM): 87.1% | viability, T/C [7]: 80.5% | viability, T/C (second compound 1 µM, first compound 0.0999 µM): 88.2% | viability, T/C [8]: 107% | viability, T/C (second compound 3.16 µM, first compound 0.000999 µM): 81.9% | viability, T/C (second compound 3.16 µM, first compound 0.00316 µM): 84% | viability, T/C (second compound 3.16 µM, first compound 0.00999 µM): 80.6% | viability, T/C [9]: 87.2% | viability, T/C (second compound 3.16 µM, first compound 0.0999 µM): 82.3% | viability, T/C [10]: 80.8% | viability, T/C (second compound 10 µM, first compound 0.000999 µM): 73.2% | viability, T/C (second compound 10 µM, first compound 0.00316 µM): 67.9% | viability, T/C (second compound 10 µM, first compound 0.00999 µM): 70.2% | viability, T/C [11]: 83.6% | viability, T/C (second compound 10 µM, first compound 0.0999 µM): 70% | viability, T/C [12]: 89.6%

— PubChem BioAssay AID2060496 (Molecular Pharmacology Branch, DTP, NCI, 2025)
